In brackets after ≈: the same amount, converted by molar mass.
Key:
P388 = assay: Cytotoxicity against mouse P388 cells; type: functional, cell-based
A549 = assay: Cytotoxicity against human A549 cells; type: functional, cell-based

C=C1CCC[C@H]2[C@](C)(CC(=O)C3=C(O)C(OC)OC3=O)[C@@H](C)CC[C@]12C (some centres not stated) [DACTYLTRONIC ACID]
IC50 (P388): 10 µg/mL (≈ 27.6 µM)
IC50 (A549): 10 µg/mL (≈ 27.6 µM)

— ChEMBL document CHEMBL1148045, “Dactyltronic acids from the sponge Dactylospongia elegans” (J Nat Prod, 1994)
